EC50, Efficacy and Emax data for seven compounds are collected here from ChEMBL document CHEMBL4732132, “Stereoselective synthesis of novel 2'-(S)-CCG-IV analogues as potent NMDA receptor agonists” (Eur J Med Chem, 2021).

Data set [1] is described as follows: Agonist activity at recombinant rat GluN1a/GluN2A receptor expressed in Xenopus laevis oocytes assessed as increase in glycine/glutamate-induced channel current at -40 mV holding potential by two-electrode voltage clamp method. In kind it is cell-based, Oocyte. The settings on record: for pEC50: Rattus norvegicus, Oocyte, read-out: EC50.
Data set [2] in a line: Agonist activity at recombinant rat GluN1a/GluN2B receptor expressed in Xenopus laevis oocytes assessed as increase in glycine/glutamate-induced channel current at -40 mV holding potential by two-electrode voltage clamp method. In kind it is cell-based, Oocyte. The settings on record: for pEC50: Rattus norvegicus, Oocyte, read-out: EC50.
Data set [3] is described as follows: Agonist activity at recombinant rat GluN1a/GluN2C receptor expressed in Xenopus laevis oocytes assessed as increase in glycine/glutamate-induced channel current at -40 mV holding potential by two-electrode voltage clamp method. It is filed as cell-based, Oocyte. The settings on record: for pEC50: Rattus norvegicus, Oocyte, read-out: EC50. On the technique in general: In two-electrode clamp one electrode senses voltage and the other passes current.

A short description of data set [4]: Agonist activity at recombinant rat GluN1a/GluN2D receptor expressed in Xenopus laevis oocytes assessed as increase in glycine/glutamate-induced channel current at -40 mV holding potential by two-electrode voltage clamp method. It is filed as cell-based, Oocyte. The settings on record: for pEC50: Rattus norvegicus, Oocyte, read-out: EC50.
Data set [5] deals with Oocyte. As to the kind of experiment: Agonist activity at recombinant rat GluN1a/GluN2A receptor expressed in Xenopus laevis oocytes assessed as increase in glycine/glutamate-induced channel current at -40 mV holding potential by two-electrode voltage clamp method relative to glutamate. It is filed as cell-based.
A short description of data set [6]: Agonist activity at recombinant rat GluN1a/GluN2B receptor expressed in Xenopus laevis oocytes assessed as increase in glycine/glutamate-induced channel current at -40 mV holding potential by two-electrode voltage clamp method relative to control. It is filed as cell-based, Oocyte. The settings on record: for Emax: Rattus norvegicus, Oocyte, read-out: Efficacy.

Data set [7] has as its system Oocyte. As to the kind of experiment: Agonist activity at recombinant rat GluN1a/GluN2C receptor expressed in Xenopus laevis oocytes assessed as increase in glycine/glutamate-induced channel current at -40 mV holding potential by two-electrode voltage clamp method relative to control. In kind it is cell-based.
Data set [8] is described as follows: Agonist activity at recombinant rat GluN1a/GluN2D receptor expressed in Xenopus laevis oocytes assessed as increase in glycine/glutamate-induced channel current at -40 mV holding potential by two-electrode voltage clamp method relative to control. In kind it is cell-based, Oocyte. The settings on record: for Emax: Rattus norvegicus, Oocyte, read-out: Efficacy.

In general, pEC50 refers to the negative decadic logarithm of the EC50, by convention in mol/L.

pEC50: −log10 of the molar value. Activity calls are given as the source filed them. The calls are words filed in the database; no cut-off is given here.

Consider `N[C@H](C(=O)O)[C@@H]1C[C@]1(CO)C(=O)O`, for which the pEC50 was 5.52 in data set [1], 5.96 in data set [2], 5.72 in data set [3] and 6.40 in data set [4]. Also, the Efficacy with Oocyte [5] (filed as agonist) was 91%; in the data set on Oocyte [7] (filed as agonist), 98.2%. Further, the figures for the Emax in data set [6] and in data set [8] were 116% and 104%, respectively.
As to `C=CCOC[C@]1(C(=O)O)C[C@H]1[C@H](N)C(=O)O`, the pEC50 is 5.43 in data set [1], 5.82 in data set [2], 5.59 in data set [3] and 6.15 in data set [4]. Moreover, the Efficacy in the data set on Oocyte [5] (filed as agonist) is 73.9%; with Oocyte [7] (filed as agonist), 84.9%. Further, the Emax in data set [6] was determined as 111%; in data set [8] it was 98.7%.
As for `CCCC[C@]1(C(=O)O)C[C@H]1[C@H](N)C(=O)O`, the pEC50 in data set [1] was 4.52; in data set [2], 5.00; in data set [3] it was 4.80; in data set [4], 5.48. Moreover, the Efficacy was 65% in the data set on Oocyte [5] (filed as agonist) and 85% with Oocyte [7] (filed as agonist). Further, the Emax in data set [6] stood at 107%; in data set [8], 94%.
With `N[C@H](C(=O)O)[C@@H]1C[C@]1(CS)C(=O)O`, the pEC50 in data set [1] is 5.32; in data set [2], 6.00; in data set [3], 5.60; in data set [4], 6.52. Further, the Efficacy in the data set on Oocyte [5] (filed as agonist) is 87%; in the data set with Oocyte [7] (filed as agonist) it was 86%. Moreover, the Emax in data set [6] worked out at 103%; in data set [8], 93%.
As to `N[C@H](C(=O)O)[C@@H]1C[C@]1(COCc1ccccc1)C(=O)O`, the EC50 result in data set [1] (oocyte), in data set [2] (oocyte), in data set [3] (oocyte) and in data set [4] (oocyte) was “Not Active” throughout. For the same compound, the Efficacy entry in the data set with Oocyte [5] and in the data set on Oocyte [7] was “inactive” each time. For the same compound, the Efficacy entry is reported as “Not Active” in data set [6] (rat, oocyte) and “Not Active” in data set [8] (rat, oocyte).
As for `[N-]=[N+]=NC[C@]1(C(=O)O)C[C@H]1[C@H](N)C(=O)O`, the pEC50 in data set [1] was 5.35; in data set [2], 6.05; in data set [3], 5.57; in data set [4], 6.40. The Efficacy with Oocyte [5] (filed as agonist) worked out at 81.7%; in the data set on Oocyte [7] (filed as agonist) it was 62.7%. Further, the Emax in data set [6] came out at 92.6%; in data set [8], 76.9%.
Take `C[C@]1(C(=O)O)C[C@H]1[C@H](N)C(=O)O`: the negative-log EC50 (pEC50) was 6.59 in data set [1], 7.10 in data set [2], 6.96 in data set [3] and 7.52 in data set [4]. Moreover, the Efficacy with Oocyte [5] (filed as agonist) was 99%; with Oocyte [7] (filed as agonist), 90%. For the same compound, the Emax in data set [6] came out at 123%; in data set [8] it was 111%.
